# From patent US6410486B1 (priority 1997, dated 2002)
# Like-named read-outs stand apart in the source and are kept apart here.
# Tested on: Pyricularia oryzae
# Assay type: in vivo
# Settings: root application as in Use Example 2, untreated control 80%
smiles,measurement,setting,value
"CC(NC(=O)C(C#N)C1CC1)c1ccc(Cl)cc1 (centres unmarked) [I.1, N-(4′-Chlorophenyl)ethyl-1-cyclopropyl-1-cyanoacetamide]",% infestation of leaves after application of an aqueous active compound preparation containing . . . ppm,10 ppm,20%
same,% infestation of leaves after application of an aqueous active compound preparation containing . . . ppm,50 ppm,5%
